In paper PMC6315388, “Azasulfurylpeptide Modulation of CD36-Mediated Inflammation Without Effect on Neovascularization” (Biomedicines, 2018):
Where two headings read alike, the source gives them in different places. Marks after values point to notes of the source that are not given here. Starred links: 1 amine or outer side, 2 acyl side, 3 side chain; linkers in the order of their positions; H or OH if unused. Non-standard residues stand in square brackets, D forms with d. Residues, ends and D or L forms follow the SMILES beside them. aza(4-F)Phe = aza-4-fluorophenylalanine (alpha-carbon replaced by nitrogen, para-fluoro), O=C(N(Cc1ccc(F)cc1)N[*:1])[*:2]; X1 = O=C([C@@H](Cc1ccccc1)NS(=O)(=O)N(Cc1ccc(F)cc1)N[*:1])[*:2]; azaTyr = O=C(N(Cc1ccc(O)cc1)N[*:1])[*:2]

Legend:
[1] = target: T1, CD36 (Rattus norvegicus, UniProt Q07969); assay: Competition with [125I]-Tyr-Bpa-Ala-hexarelin tracer for CD36 binding on purified rat heart membranes; conditions: purified membranes from rat heart, read-out: CD36 binding affinity IC50
T1 construct: purified membranes from rat heart as a source of CD36; from tissue; host or cells: rat heart (purified membranes)
Procedure: The ability of [(4-F)AsF^4]-GHRP-6 (3c) to compete with the radiolabeled [^125I]-Tyr-Bpa-Ala-hexarelin used as tracer for CD36 binding was tested on purified membranes from rat heart as a source of CD36 [36].

[2] = tested on: NO overproduction in J774 macrophage cell line elicited by TLR-2 agonist (R-FSL-1); assay: Modulation of TLR2 agonist (R-FSL-1)-induced overproduction of nitric oxide in J774 macrophage cell line (nitrite, DAN fluorescence); type: cell-based, murine; conditions: J774 macrophages; for NO inhibition Fold of 1: 2 h pre-incubation, overnight stimulation with 300 ng/mL R-FSL-1; for Inhibitory effect on R-FSL-elicited NO production (in words): R-FSL-1
Procedure: The murine J774A.1 macrophage cell lines were obtained from American Type Cell Collection (ATCC #TIB-67), seeded at 1.5 × 10^5 cells/well in Dulbecco’s modified eagle media (DMEM) containing 100U/mL of penicillin (Pen) and 100 μg/mL of streptomycin (Strep) on a 48-well plate (Costar® #3548), and incubated at 37 °C with 5% CO2. After 2 h, the medium of adhered cells was changed to DMEM-Pen/Strep containing 0.2% of bovine serum albumin (BSA), and supplemented with either azasulfurylpeptide 3a–f or [azaK^6]-GHRP-6 as a negative control. After 2 h of pre-incubation, the cells were stimulated overnight with 300 ng/mL of R-FSL-1. Supernatants were collected for fluorescence determination of nitrite using 2,3-diaminonaphtalene (DAN). Briefly, 25 μL of sample was incubated with 0.5 μg of DAN in a 100 μL final volume of phosphate buffer (50 mM, pH 7.5) at rt in the dark. After 15 min, the reaction was stopped with 20 µL of NaOH (2.8N) and the plate was read using a fluorescence plate reader (TECAN® Safire, λexc 365 nm and λem 430 nm).

[3] = tested on: TNFα secretion in peritoneal macrophages; assay: TNFα secretion by peritoneal macrophages stimulated with R-FSL-1 (ELISA); type: cell-based, C57BL/6 mice; conditions: 1 µM peptide, 2 h pretreatment, R-FSL-1 300 ng/mL, NA: no activity
Procedure: (§1) Peritoneal macrophage cells from C57BL/6 mice were harvested from sterile DMEM cell-culture medium (Wisent # 319-005-CL), allowed to adhere for 1 h at 37 °C in a 5% CO2 atmosphere, and washed twice with PBS to remove non-adherent cells. Macrophages (0.5 × 10^6 cells/well) were plated in 48 well-culture plates with DMEM containing 0.2% of bovine serum albumin (BSA), pretreated for 2 h with azasulfurylpeptides 3b–e or [azaK^6]-GHRP-6 (1 µM), before stimulation with a TLR2 ligand: R-FSL-1 (Invivogen® #L7022) at 300 ng/mL interferon gamma (IFNγ R&D Systems® Minneapolis, MN, USA # 172-5201) at 20 ng/mL for 4 or 24 h. The supernatants were recovered, and ELISA (eBioscience® #88-7324; 88-7391) was performed to determine the levels of proinflammatory cytokine and chemokine (TNFα, MCP-1). The effect on NF-κB activation was documented on cell lysates after 0, 5, 10, 15 and 30 min stimulation with R-FSL1, using NF-κB p65/RelA specific ELISA-based assay (eBioscience® #85-86083). The results were expressed as mean ± SEM and analyzed statistically by a one-way analysis of variance (ANOVA) with a Dunnett as a post-test. Level of significance was set at P < 0.05.

[4] = tested on: subretinal IBA-1 positive cells (activated microglia/macrophages); assay: Blue-light illumination model of retinal inflammation: IBA-1-positive cells in the subretinal space; type: in vivo; conditions: ApoE−/− mice, 1000 lux blue light 5 d, 289 nmol/kg s.c. for 7 consecutive days, vs illuminated vehicle-treated mice, n = 3–5
Procedure: Apo E deficient (ApoE^−/−) mice were obtained from The Jackson Laboratory (Bar Harbor, ME, USA). Animals were housed under 12 h light/dark cycles and fed ad libitum with a standard rodent diet. All experimental procedures were done in accordance with the Animal Ethics Committee at Université de Montreal (CDEA, project 12-012 approved on 26 January 2013) and the Canadian Council on Animal Care guidelines for use of experimental animals.
Three to four-month-old ApoE^−/− mice were exposed to blue LED-light (Yescom USA, Inc., City Of Industry, CA, USA) for 5 d at 1000 lux illumination without previous dark-adaptation. For pupil dilatation, ophthalmic atropine solution 1% (Alcon, Fort Worth, TX, USA) was applied to both eyes daily. Aza- and azasulfurylpeptides 1, 2 and 3c or [azaK^6]-GHRP-6 (289 nmol/kg) were administered subcutaneously at 24 h following blue-light exposure for 7 consecutive days. At the end of the blue-light exposure period, the mice were maintained on a 12:12 h light: dark cycle for 3 days, before being sacrificed. Enucleated eyes were fixed in 4% paraformaldehyde (PFA) for 15 min at rt and sectioned at the limbus; the anterior segments were discarded. The posterior eye cups consisting of retinal pigment epithelium (RPE)/choroid/sclera complex were collected and prepared for immunofluorescence analysis.
RPE/choroid/sclera flat-mounts were treated with PBS solution containing 0.1% Triton 100× and 10% fetal bovine serum (FBS) or 5% BSA (saturation buffer) for 45 min. Specimens were incubated overnight at 4 °C with primary antibodies diluted in saturation buffer. Immunofluorescence was performed using polyclonal rabbit anti-IBA-1 as marker of activated cells. […] Flatmounts were analyzed using an IX81 Olympus fluorescence microscope (Richmond Hill, ON, Canada). […]
IBA-1–stained cells were counted on flatmounts from control and illuminated mice injected daily with 0.9% NaCl or with aza- and azasulfurylpeptides 1, 2 and 3c or [azaK^6]-GHRP-6 (289 nmol/kg). Cell numbers were expressed as the mean number of IBA-1–positive cells in subretinal space. […]

[5] = target: T1, CD36; conditions: read-out: CD36 binding affinity IC50; cited from earlier work
[6] = tested on: mouse choroidal explants (RPE/choroid/sclera complex); assay: Microvascular sprouting on choroid explant as index of angiogenesis; type: cell-based; conditions: 10^−6 M, 24 h, Matrigel-embedded mouse choroidal explants, n = 3–4
Procedure: Choroidal explants were set as described previously. Briefly, enucleated mice eyes with and without treatment with aza- and azasulfurylpeptides 1, 2 and 3c or [azaK^6]-GHRP-6 were collected and dissected to obtain the complex consisting of the RPE/choroid/sclera, which was cut in 16 explant fragments and cultured in 20 µL of Matrigel (BD biosciences, San Jose, CA, USA) in 24-wells plates (Sarstedt Inc., St. Leonard, QC, Canada). […] Phototographs of explants were taken under microscopy (T0 and T24 h). The explants were washed with endothelial basal medium (EBM) and incubated in EBM with NaCl or CD36 ligands at 10^−6 M for 24 h. The sprouting surface was assessed by image analysis using imagen J software. Ratios (sprouting surface at T24 h, sprouting surface at T0)/sprouting surface at T0 were determined. Numerical results were expressed as mean ± SEM. Data were compared using one-way ANOVA with Dunnett’s post-test. P < 0.05 was considered statistically significant (Prism software version 5.01; graphpad Software, San Diego, CA, USA).

[7] = tested on: MCP-1 secretion in peritoneal macrophages; assay: MCP-1 secretion by peritoneal macrophages stimulated with R-FSL-1 (ELISA); type: cell-based, C57BL/6 mice; conditions: 1 µM peptide, 2 h pretreatment, R-FSL-1 300 ng/mL, NA: no activity
Procedure: as §1

T1 sequence (Q07969 whole entry): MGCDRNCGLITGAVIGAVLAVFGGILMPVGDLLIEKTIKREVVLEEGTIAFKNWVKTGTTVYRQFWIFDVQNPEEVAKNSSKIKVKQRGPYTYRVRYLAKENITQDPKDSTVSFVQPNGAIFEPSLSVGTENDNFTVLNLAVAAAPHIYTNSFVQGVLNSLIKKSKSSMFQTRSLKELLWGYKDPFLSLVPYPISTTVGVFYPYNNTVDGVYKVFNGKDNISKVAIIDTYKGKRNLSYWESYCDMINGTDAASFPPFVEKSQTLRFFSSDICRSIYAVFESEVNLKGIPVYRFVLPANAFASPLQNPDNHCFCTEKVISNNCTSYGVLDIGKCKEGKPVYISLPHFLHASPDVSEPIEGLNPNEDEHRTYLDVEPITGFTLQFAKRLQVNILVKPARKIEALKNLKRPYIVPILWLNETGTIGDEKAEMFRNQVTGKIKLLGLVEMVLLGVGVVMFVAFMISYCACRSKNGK

Row | Molecule | NO inhibition Fold of 1 [2] | Inhibitory effect on R-FSL-elicited NO production (in words) [2] | TNFα inhibition Fold of 1 [3] | Decrease of IBA-1+ cell accumulation in the subretina [4] [%] | also measured
1 | C[C@H](NC(=O)[C@@H](Cc1c[nH]c2ccccc12)NC(=O)[C@@H](N)Cc1c[nH]cn1)C(=O)NN(Cc1ccc(F)cc1)S(=O)(=O)N[C@H](Cc1ccccc1)C(=O)N[C@@H](CCCCN)C(N)=O [3c, H-His-D-Trp-Ala-(4-F)AsF-D-Phe-Lys-NH2] (H-H[dW]A[X1]K-NH2) | – | – | – | – | IC50 [1]: 2.53 µM
2 | H-Ala-D-Trp-Ala-AsF(4-F)-D-Phe-Lys-NH2 [3f] | -0.04 Fold of 1 | limited inhibitory effect | – | – | –
3 | H-His-D-Trp-Ala-(4-MeO)AsF-D-Phe-Lys-NH2 [3d] | 1.5 Fold of 1 | – | 1.5 Fold of 1 | – | –
4 | H-His-D-Trp-Ala-AsF(4-HO)-D-Phe-Lys-NH2 [3b] | 0.2 Fold of 1 | – | – | – | –
5 | H-His-D-Trp-Ala-AsF-D-Phe-Lys-NH2 [3a] | 1.6 Fold of 1 | reduced significantly NO production | – | 50 | –
6 | H-His-D-Trp-Ala-AsNal-D-Phe-Lys-NH2 [3e] | 0.06 Fold of 1 | limited inhibitory effect | – | – | –
7 | His-D-Trp-Ala-aza(4-F)Phe-D-Phe-Lys-NH2 (H-H[dW]A[aza(4-F)Phe][dF]K-NH2; SMILES C[C@H](NC(=O)[C@@H](Cc1c[nH]c2ccccc12)NC(=O)[C@@H](N)Cc1c[nH]cn1)C(=O)NN(Cc1ccc(F)cc1)C(=O)N[C@H](Cc1ccccc1)C(=O)N[C@@H](CCCCN)C(N)=O) [compound 2, semicarbazide analog of GHRP-6, CD36 ligand] | – | – | – | – | IC50 [5]: 6.06 µM
8 | His-D-Trp-Ala-aza(4-F)Phe-D-Phe-Lys-NH2 [compound 2, semicarbazide analog of GHRP-6, CD36 ligand] | 1.4 Fold of 1 | – | 0.87 Fold of 1 | 50 | Effect on choroidal microvascular sprouting (in words) [6]: inhibited microvascular sprouting; MCP-1 inhibition Fold of 1 [7]: 0.97 Fold of 1
9 | His-D-Trp-Ala-azaTyr-D-Phe-Lys-NH2 (H-H[dW]A[azaTyr][dF]K-NH2; SMILES C[C@H](NC(=O)[C@@H](Cc1c[nH]c2ccccc12)NC(=O)[C@@H](N)Cc1c[nH]cn1)C(=O)NN(Cc1ccc(O)cc1)C(=O)N[C@H](Cc1ccccc1)C(=O)N[C@@H](CCCCN)C(N)=O) [compound 1, semicarbazide analog of GHRP-6, CD36 ligand] | – | – | – | – | IC50 [5]: 1.9 µM
10 | His-D-Trp-Ala-azaTyr-D-Phe-Lys-NH2 [compound 1, semicarbazide analog of GHRP-6, CD36 ligand] | 1 ^a Fold of 1 | – | 1 ^b Fold of 1 | 50 | Effect on choroidal microvascular sprouting (in words) [6]: inhibited microvascular sprouting; MCP-1 inhibition Fold of 1 [7]: 1 ^c Fold of 1
